Species on record: Rattus norvegicus
Assay: Open TG-GATES - Regimen: Daily Repeat
Type: toxicity, organism-based, Sprague-Dawley
Set-up: regimen Daily Repeat, gender Male, age 6 weeks
Details: in vivo, po, route gavage; for APTT / Bas / Eos / Fbg / Hb / Ht / Lym / MCH / MCHC / MCV / Mono / Neu / PT / Plat / RBC / Ret / WBC: tissue Blood; for KIDNEY_L / KIDNEY_R / KIDNEY_TOTAL: tissue Kidney; for LIVER: tissue Liver; for A/G / ALP / ALT / AST / BUN / CRE / Ca / Cl / DBIL / GLC / IP / K / LDH / Na / PL / RALB / TBIL / TC / TG / TP / gamma-GTP: tissue Plasma
[1] = 0 mg/kg, 72 h, dose level Control, time 3 day
[2] = 0 mg/kg, […], dose level Control, time 7 day
[3] = 0 mg/kg, […], dose level Control, time 14 day
[4] = 0 mg/kg, […], dose level Control, time 28 day
[5] = 30 mg/kg, 72 h, dose level Low, time 3 day
[6] = 30 mg/kg, […], dose level Low, time 7 day
[7] = 30 mg/kg, […], dose level Low, time 14 day
[8] = 30 mg/kg, […], dose level Low, time 28 day

Clc1c(Cl)c(Cl)c(Cl)c(Cl)c1Cl [PERCHLOROBENZENE]
TERMINAL_BW [1]: 224.3 g
APTT [1]: 16.2 s
Bas [1]: 0%
Eos [1]: 1.2%
Fbg [1]: 217.4 mg/dL
Hb [1]: 13.7 g/dL
Ht [1]: 40.9%
Lym [1]: 77%
MCH [1]: 22 pg
MCHC [1]: 33.5%
MCV [1]: 65.6 fL
Mono [1]: 8%
Neu [1]: 13.8%
PT [1]: 11.8 s
Plat [1]: 98.6 x10_4/uL
RBC [1]: 623.2 x10_4/ul
Ret [1]: 8.6%
WBC [1]: 102.9 x10_2/uL
KIDNEY_L [1]: 1.1 g
KIDNEY_R [1]: 1.1 g
KIDNEY_TOTAL [1]: 2.2 g
LIVER [1]: 11.5 g
A/G [1]: 2.1
ALP [1]: 882.4 IU/L
ALT [1]: 40.2 IU/L
AST [1]: 59 IU/L
BUN [1]: 16.2 mg/dL
CRE [1]: 0.5 mg/dL
Ca [1]: 10.5 mg/dL
Cl [1]: 105.2 meq/L
DBIL [1]: 0.038 mg/dL
GLC [1]: 193.4 mg/dL
IP [1]: 8.5 mg/dL
K [1]: 5.4 meq/L
LDH [1]: 85.8 IU/L
Na [1]: 138.6 meq/L
PL [1]: 135 mg/dL
RALB [1]: 3.9 g/dL
TBIL [1]: 0.3 mg/dL
TC [1]: 73 mg/dL
TG [1]: 68.8 mg/dL
TP [1]: 5.8 g/dL
gamma-GTP [1]: 1.4 IU/L
TERMINAL_BW [2]: 255.4 g
TERMINAL_BW [3]: 321.1 g
TERMINAL_BW [4]: 417.1 g
APTT [2]: 15.8 s
Bas [2]: 0%
Eos [2]: 1.2%
Fbg [2]: 222.8 mg/dL
Hb [2]: 14.2 g/dL
Ht [2]: 42.4%
Lym [2]: 76.6%
MCH [2]: 21.8 pg
MCHC [2]: 33.4%
MCV [2]: 65.2 fL
Mono [2]: 7.2%
Neu [2]: 14.8%
PT [2]: 12 s
Plat [2]: 96.5 x10_4/uL
RBC [2]: 651.2 x10_4/ul
Ret [2]: 5.9%
WBC [2]: 105.4 x10_2/uL
APTT [3]: 16 s
Bas [3]: 0%
Eos [3]: 1%
Fbg [3]: 237.6 mg/dL
Hb [3]: 14.4 g/dL
Ht [3]: 43%
Lym [3]: 78.8%
MCH [3]: 21.2 pg
MCHC [3]: 33.5%
MCV [3]: 63.2 fL
Mono [3]: 6.4%
Neu [3]: 13.8%
PT [3]: 11.9 s
Plat [3]: 106.8 x10_4/uL
RBC [3]: 681.2 x10_4/ul
Ret [3]: 5.2%
WBC [3]: 160.8 x10_2/uL
APTT [4]: 16.5 s
Bas [4]: 0%
Eos [4]: 1.2%
Fbg [4]: 221 mg/dL
Hb [4]: 15.2 g/dL
Ht [4]: 45.9%
Lym [4]: 83.4%
MCH [4]: 19.3 pg
MCHC [4]: 33.1%
MCV [4]: 58.5 fL
Mono [4]: 4.8%
Neu [4]: 10.8%
PT [4]: 11.7 s
Plat [4]: 97.1 x10_4/uL
RBC [4]: 783.8 x10_4/ul
Ret [4]: 2.5%
WBC [4]: 133.5 x10_2/uL
KIDNEY_L [2]: 1.1 g
KIDNEY_R [2]: 1.2 g
KIDNEY_TOTAL [2]: 2.3 g
KIDNEY_L [3]: 1.3 g
KIDNEY_R [3]: 1.3 g
KIDNEY_TOTAL [3]: 2.6 g
KIDNEY_L [4]: 1.4 g
KIDNEY_R [4]: 1.5 g
KIDNEY_TOTAL [4]: 2.9 g
LIVER [2]: 12.9 g
LIVER [3]: 15.7 g
LIVER [4]: 18.2 g
A/G [2]: 2
ALP [2]: 912 IU/L
ALT [2]: 33.4 IU/L
AST [2]: 58.6 IU/L
BUN [2]: 19.2 mg/dL
CRE [2]: 0.6 mg/dL
Ca [2]: 10.3 mg/dL
Cl [2]: 105.2 meq/L
DBIL [2]: 0.024 mg/dL
GLC [2]: 193.6 mg/dL
IP [2]: 7.7 mg/dL
K [2]: 4.8 meq/L
LDH [2]: 95.8 IU/L
Na [2]: 137.4 meq/L
PL [2]: 148.6 mg/dL
RALB [2]: 4 g/dL
TBIL [2]: 0.4 mg/dL
TC [2]: 78.2 mg/dL
TG [2]: 94.6 mg/dL
TP [2]: 5.9 g/dL
gamma-GTP [2]: 1 IU/L
A/G [3]: 1.8
ALP [3]: 615.2 IU/L
ALT [3]: 31.2 IU/L
AST [3]: 58.2 IU/L
BUN [3]: 18.6 mg/dL
CRE [3]: 0.6 mg/dL
Ca [3]: 10.2 mg/dL
Cl [3]: 105.6 meq/L
DBIL [3]: 0.004 mg/dL
GLC [3]: 189 mg/dL
IP [3]: 7.6 mg/dL
K [3]: 4.9 meq/L
LDH [3]: 98 IU/L
Na [3]: 138.4 meq/L
PL [3]: 155.6 mg/dL
RALB [3]: 4 g/dL
TBIL [3]: 0.3 mg/dL
TC [3]: 79 mg/dL
TG [3]: 136.4 mg/dL
TP [3]: 6.2 g/dL
gamma-GTP [3]: 1.2 IU/L
A/G [4]: 1.8
ALP [4]: 643.6 IU/L
ALT [4]: 32.6 IU/L
AST [4]: 54.2 IU/L
BUN [4]: 18.6 mg/dL
CRE [4]: 0.7 mg/dL
Ca [4]: 10.6 mg/dL
Cl [4]: 105.4 meq/L
DBIL [4]: 0.014 mg/dL
GLC [4]: 193 mg/dL
IP [4]: 7.5 mg/dL
K [4]: 4.3 meq/L
LDH [4]: 102 IU/L
Na [4]: 140 meq/L
PL [4]: 160.4 mg/dL
RALB [4]: 4.2 g/dL
TBIL [4]: 0.3 mg/dL
TC [4]: 77 mg/dL
TG [4]: 140.6 mg/dL
TP [4]: 6.5 g/dL
gamma-GTP [4]: 1 IU/L
TERMINAL_BW [5]: 223.9 g
APTT [5]: 16.2 s
Bas [5]: 0%
Eos [5]: 1.2%
Fbg [5]: 215.4 mg/dL
Hb [5]: 13.9 g/dL
Ht [5]: 41.8%
Lym [5]: 72.2%
MCH [5]: 21.8 pg
MCHC [5]: 33.3%
MCV [5]: 65.6 fL
Mono [5]: 6.8%
Neu [5]: 19.6%
PT [5]: 11.5 s
Plat [5]: 98.9 x10_4/uL
RBC [5]: 637.6 x10_4/ul
Ret [5]: 7.6%
WBC [5]: 102.3 x10_2/uL
KIDNEY_L [5]: 1.1 g
KIDNEY_R [5]: 1.1 g
KIDNEY_TOTAL [5]: 2.2 g
LIVER [5]: 12.4 g
A/G [5]: 2.2
ALP [5]: 816 IU/L
ALT [5]: 41.6 IU/L
AST [5]: 67 IU/L
BUN [5]: 14.6 mg/dL
CRE [5]: 0.5 mg/dL
Ca [5]: 10.5 mg/dL
Cl [5]: 105.6 meq/L
DBIL [5]: 0.028 mg/dL
GLC [5]: 194.4 mg/dL
IP [5]: 8.3 mg/dL
K [5]: 5.1 meq/L
LDH [5]: 104 IU/L
Na [5]: 139.6 meq/L
PL [5]: 143.8 mg/dL
RALB [5]: 3.9 g/dL
TBIL [5]: 0.4 mg/dL
TC [5]: 82 mg/dL
TG [5]: 79.8 mg/dL
TP [5]: 5.7 g/dL
gamma-GTP [5]: 1.4 IU/L
TERMINAL_BW [6]: 255.4 g
TERMINAL_BW [7]: 320.4 g
TERMINAL_BW [8]: 413.2 g
APTT [6]: 16.5 s
Bas [6]: 0%
Eos [6]: 1.4%
Fbg [6]: 225 mg/dL
Hb [6]: 14 g/dL
Ht [6]: 42%
Lym [6]: 79.6%
MCH [6]: 21.1 pg
MCHC [6]: 33.4%
MCV [6]: 63.3 fL
Mono [6]: 5.2%
Neu [6]: 14.2%
PT [6]: 11.6 s
Plat [6]: 116.4 x10_4/uL
RBC [6]: 663.6 x10_4/ul
Ret [6]: 5.4%
WBC [6]: 97.6 x10_2/uL
APTT [7]: 17.7 s
Bas [7]: 0%
Eos [7]: 1.6%
Fbg [7]: 225.8 mg/dL
Hb [7]: 14.4 g/dL
Ht [7]: 43%
Lym [7]: 66.8%
MCH [7]: 20.5 pg
MCHC [7]: 33.5%
MCV [7]: 61.3 fL
Mono [7]: 12%
Neu [7]: 19.6%
PT [7]: 11.9 s
Plat [7]: 119 x10_4/uL
RBC [7]: 702.6 x10_4/ul
Ret [7]: 4.3%
WBC [7]: 113.1 x10_2/uL
APTT [8]: 21.6 s
Bas [8]: 0%
Eos [8]: 1.8%
Fbg [8]: 258.6 mg/dL
Hb [8]: 15 g/dL
Ht [8]: 44.8%
Lym [8]: 69.8%
MCH [8]: 20.4 pg
MCHC [8]: 33.4%
MCV [8]: 61 fL
Mono [8]: 12%
Neu [8]: 16.2%
PT [8]: 13.2 s
Plat [8]: 102.4 x10_4/uL
RBC [8]: 735 x10_4/ul
Ret [8]: 3%
WBC [8]: 113.2 x10_2/uL
KIDNEY_L [6]: 1.2 g
KIDNEY_R [6]: 1.2 g
KIDNEY_TOTAL [6]: 2.4 g
KIDNEY_L [7]: 1.3 g
KIDNEY_R [7]: 1.4 g
KIDNEY_TOTAL [7]: 2.7 g
KIDNEY_L [8]: 1.7 g
KIDNEY_R [8]: 1.7 g
KIDNEY_TOTAL [8]: 3.4 g
LIVER [6]: 14.7 g
LIVER [7]: 20.2 g
LIVER [8]: 27.3 g
A/G [6]: 2.1
ALP [6]: 719.8 IU/L
ALT [6]: 33.2 IU/L
AST [6]: 55.8 IU/L
BUN [6]: 15.8 mg/dL
CRE [6]: 0.6 mg/dL
Ca [6]: 10.4 mg/dL
Cl [6]: 104.8 meq/L
DBIL [6]: 0.002 mg/dL
GLC [6]: 190.6 mg/dL
IP [6]: 7.9 mg/dL
K [6]: 5 meq/L
LDH [6]: 93.6 IU/L
Na [6]: 137.6 meq/L
PL [6]: 166.4 mg/dL
RALB [6]: 4 g/dL
TBIL [6]: 0.5 mg/dL
TC [6]: 89.4 mg/dL
TG [6]: 129.8 mg/dL
TP [6]: 5.9 g/dL
gamma-GTP [6]: 1.2 IU/L
A/G [7]: 1.8
ALP [7]: 589.2 IU/L
ALT [7]: 35.4 IU/L
AST [7]: 61.8 IU/L
BUN [7]: 17.6 mg/dL
CRE [7]: 0.6 mg/dL
Ca [7]: 10.4 mg/dL
Cl [7]: 105.4 meq/L
DBIL [7]: 0.004 mg/dL
GLC [7]: 173.2 mg/dL
IP [7]: 7.1 mg/dL
K [7]: 4.9 meq/L
LDH [7]: 84.6 IU/L
Na [7]: 139.6 meq/L
PL [7]: 201 mg/dL
RALB [7]: 4 g/dL
TBIL [7]: 0.4 mg/dL
TC [7]: 120.6 mg/dL
TG [7]: 119.6 mg/dL
TP [7]: 6.2 g/dL
gamma-GTP [7]: 2 IU/L
A/G [8]: 1.6
ALP [8]: 345.6 IU/L
ALT [8]: 35.6 IU/L
AST [8]: 55.2 IU/L
BUN [8]: 18.6 mg/dL
CRE [8]: 0.7 mg/dL
Ca [8]: 10.8 mg/dL
Cl [8]: 105 meq/L
DBIL [8]: 0.004 mg/dL
GLC [8]: 160.4 mg/dL
IP [8]: 7 mg/dL
K [8]: 4.7 meq/L
LDH [8]: 75 IU/L
Na [8]: 141.2 meq/L
PL [8]: 190.6 mg/dL
RALB [8]: 4.4 g/dL
TBIL [8]: 0.4 mg/dL
TC [8]: 118 mg/dL
TG [8]: 127.4 mg/dL
TP [8]: 7.2 g/dL
gamma-GTP [8]: 3.2 IU/L
